Key:
RENCA tumour cells = assay: Antitumor activity, RENCA model; format: in vivo, mouse; details: D18 and D22, compared to untreated and vehicle groups, FIG. 3B
Protocol: Treatment schedule—The start of first dosing was considered as D0. On D0, non-engrafted mice were randomized according to their individual body weight into groups of 9 mice using Vivo manager® software (Biosystemes, Couternon, France). On D0, the mice received vehicle (culture medium) or bacterial strain (2×10^8 in 200 μL, PO). On D14, all mice were engrafted with RENCA tumour cells injected SC into the ventral surface of the lower flank as described below. Treatment with anti-CTLA-4 (10 mg/kg, IP) and anti-PDL1 (clone 10F.9G2, 10 mg/kg) was initiated when tumours reached a volume of 50-70 mm3.
Orthotopic induction of RENCA tumor cells in animals by SC injection—On D14, one million (1×10^6) RENCA tumor cells in 50 μL RPMI 1640 medium were transplanted via SC injection into the ventral surface of the lower flank of mice.
Euthanasia—Each mouse was euthanized when it reached a humane endpoint as described in section below, or after a maximum of 6 weeks post start of dosing.
Evaluation of tumour burden at euthanasia—At the time of termination, tumours were collected and their volume evaluated.
Clinical monitoring—The length and width of the tumour was measured twice a week with callipers and the volume of the tumour was estimated by this formula [52]: […]

immature dendritic cells = assay: Cytokine production in immature dendritic cells; format: cell-based; details: MRX518 10^7/ml, LPS 100 ng/ml, FIGS. 4b, 4d
Protocol: A monocyte population was isolated from peripheral blood mononuclear cells (PBMCs). The monocyte cells were subsequently differentiated into immature dendritic cells. The immature dendritic cells were plated out at 200,000 cells/well and incubated with MRX518 at a final concentration of 10^7/ml, with the optional addition of LPS at a final concentration of 100 ng/ml. The negative control involved incubating the cells with RPMI media alone and positive controls incubated the cells with LPS at a final concentration of 100 ng/ml. The cytokine content of the cells was then analysed.

| Molecule | reduction in tumour size (RENCA tumour cells) | level of IL-1β (immature dendritic cells) |
| --- | --- | --- |
| CC(=O)O[C@H]1C(=O)[C@@]2(C)[C@H]([C@H](OC(=O)c3ccccc3)[C@]3(O)C[C@H](OC(=O)[C@H](O)[C@@H](NC(=O)c4ccccc4)c4ccccc4)C(C)=C1C3(C)C)[C@]1(OC(C)=O)CO[C@@H]1C[C@@H]2O [Paclitaxel] | (almost) complete reduction in tumour size |  |
| lipopolysaccharide [LPS] |  | but not IL-1β |

— US20210060093A1, “COMBINATION THERAPY FOR TREATING OR PREVENTING CANCER” (4D Pharma Research Limited, priority 2018, published 2021)
